The values that follow come from patent publication US20200029564A1, “NOVEL 5-SUBSTITUTED IMIDAZOLYLMETHYLOXIRANE DERIVATIVES” (Bayer CropScience Aktiengesellschaft, priority 2016, published 2020).

Series [1] can be described thus: LogP by HPLC on reversed phase columns (EEC directive 79/831 Annex V.A8). The class given is physicochemical. Conditions: method [a]: LC-UV, acidic range, 0.1% formic acid in water and acetonitrile as eluent; for chromatographic logP: reversed phase HPLC column. The protocol: [table] If more than one Log P value is available within the same method, all the values are given and separated by “+”. Calibration was done with straight-chain alkan2-ones (with 3 to 16 carbon atoms) with known Log P values (measurement of Log P values using retention times with linear interpolation between successive alkanones). Lambda-max-values were determined using UV-spectra from 200 nm to 400 nm and the peak values of the chromatographic signals.

Series [2] deals with Sphaerotheca fuliginea. Description: In vivo preventive test on Sphaerotheca fuliginea (powdery mildew on cucurbits). Conditions: Podosphaera fuliginea, 360 h; 500 ppm of active ingredient; preventive spray on young gherkin plants; evaluated 15 days after inoculation; read-out: efficacy. How it is done:
Example C: In Vivo Preventive Test on Sphaerotheca fuliginea (Powdery Mildew on Cucurbits) [table] The active ingredients are made soluble and homogenized in a mixture of Dimethyl sulfoxide/Acetone/Tween® 80 and then diluted in water to the desired concentration. The young plants of gherkin are treated by spraying the active ingredient prepared as described above. Control plants are treated only with an aqueous solution of Acetone/Dimethyl sulfoxide/Tween® 80. After 24 hours, the plants are contaminated by spraying the leaves with an aqueous suspension of Sphaerotheca fuidiginea spores. The contaminated gherkin plants are incubated for 72 hours at 18° C. and at 100% relative humidity and then for 12 days at 20° C. and at 70-80% relative humidity. The test is evaluated 15 days after the inoculation. 0% means an efficacy which corresponds to that of the control plants while an efficacy of 100% means that no disease is observed.

Series [3] deals with Puccinia recondita. Description: In vivo preventive test on Puccinia recondita (brown rust on wheat). The note with it: 264 h, 500 ppm of active ingredient, preventive spray on young wheat plants, evaluated 11 days after inoculation, read-out: efficacy. The protocol: (§1) Example A: In Vivo Preventive Test on Puccinia recondita (Brown Rust on Wheat) [table] The active ingredients are made soluble and homogenized in a mixture of Dimethyl sulfoxide/Acetone/Tween® 80 and then diluted in water to the desired concentration. The young plants of wheat are treated by spraying the active ingredient prepared as described above. Control plants are treated only with an aqueous solution of Acetone/Dimethyl sulfoxide/Tween® 80. After 24 hours, the plants are contaminated by spraying the leaves with an aqueous suspension of Puccinia recondita spores. The contaminated wheat plants are incubated for 24 hours at 20° C. and at 100% relative humidity and then for 10 days at 20° C. and at 70-80% relative humidity. The test is evaluated 11 days after the inoculation. 0% means an efficacy which corresponds to that of the control plants while an efficacy of 100% means that no disease is observed.

The test system of series [4] is Septoria tritici. Nature of the series: In vivo preventive test on Septoria tritici (leaf spot on wheat). Conditions: Zymoseptoria tritici, 576 h; 500 ppm of active ingredient; preventive spray on young wheat plants; evaluated 24 days after inoculation; read-out: efficacy. How it is done: Example B: In Vivo Preventive Test on Septoria tritici (Leaf Spot on Wheat) [table] The active ingredients are made soluble and homogenized in a mixture of Dimethyl sulfoxide/Acetone/Tween® 80 and then diluted in water to the desired concentration. The young plants of wheat are treated by spraying the active ingredient prepared as described above. Control plants are treated only with an aqueous solution of Acetone/Dimethyl sulfoxide/Tween® 80. After 24 hours, the plants are contaminated by spraying the leaves with an aqueous suspension of Septoria tritici spores. The contaminated wheat plants are incubated for 72 hours at 18° C. and at 100% relative humidity and then for 21 days at 20° C. and at 90% relative humidity. The test is evaluated 24 days after the inoculation. 0% means an efficacy which corresponds to that of the control plants while an efficacy of 100% means that no disease is observed.

For series [5], the system named is Uromyces appendiculatus. Description: In vivo preventive test on Uromyces appendiculatus (bean rust). The note with it: 264 h, 500 ppm of active ingredient, preventive spray on young bean plants, evaluated 11 days after inoculation, read-out: efficacy. The protocol:
as §1, with “D:” for “A:”, “Uromyces appendiculatus (Bean Rust)” for “Puccinia recondita (Brown Rust on Wheat)”, “bean” for “wheat”, “Uromyces appendiculatus” for “Puccinia recondita”

SMILES strings stand for the structures.

In general, chromatographic logP refers to a lipophilicity value derived from retention on a column. A lower chromatographic logP goes with a more hydrophilic compound. As to `N#Cc1cncn1CC1(c2ccc(F)cc2)OC1c1cccnc1Cl` (stereo not shown) [I-16], the chromatographic logP in series [1] came out at 2.2. Moreover, the pest or weed control at 500 ppm in series [2] is 90 to 100%.
In series [1], `N#Cc1cncn1CC1(c2ccc(F)cc2)OC1c1cccc(Cl)c1` (stereo not shown) [I-21] yielded a chromatographic logP of 3.35. Also, the pest or weed control at 500 ppm in series [3] was 90 to 100%; in series [4] it was 80 to 89%; in series [2] it was 90 to 100%; in series [5] it was 90 to 100%.
For `COc1ccc(C2(Cn3cncc3C#N)OC2c2ccccc2Cl)cc1` (stereo not shown) [I-22], in series [1], the chromatographic logP was determined as 3.26. The pest or weed control at 500 ppm in series [3], in series [4], in series [2] and in series [5] was 90 to 100% each time.
In turn, `COc1ccc(C2(Cn3cncc3C#N)OC2c2ccccc2Cl)cn1` (stereo not shown) [I-19] displayed a chromatographic logP in series [1] of 2.86. The pest or weed control at 500 ppm in series [3] was in the range of 90 to 100%; in series [4], 90 to 100%; in series [2], 90 to 100%; in series [5], 80 to 89%.
In the case of `N#Cc1cncn1C[C@]1(c2ccc(F)cc2)O[C@@H]1c1ccccc1Cl` (relative stereo) [I-04, cis 3-[[3-(2-chlorophenyl)-2-(4-fluorophenyl)oxiran-2-yl]methyl]imidazole-4-carbonitrile], the chromatographic logP in series [1] came out at 2.98. Also, the pest or weed control at 500 ppm in series [4] lay within 80 to 89%; in series [2], 90 to 100%; in series [5] it was 80 to 89%.
Consider `N#Cc1cncn1CC1(c2ccc(F)cc2)OC1c1cccnc1Cl` (stereo not shown) [I-17], for which the LogP in series [1] was 2.50 ^[a]. For the same compound, the pest or weed control at 500 ppm in series [4] and in series [5] was 90 to 100% in each case.
In series [1], `N#Cc1cncn1CC1(c2ccc(F)cc2)OC1c1ccc(Cl)cc1` (stereo not shown) [I-24] yielded a chromatographic logP of 3.37. Further, the pest or weed control at 500 ppm in series [3], in series [4], in series [2] and in series [5] was 90 to 100% each time.
In series [1], `N#Cc1cncn1CC1(c2ccc(Br)cc2)OC1c1ccccc1Cl` (stereo not shown) [I-08] yielded a chromatographic logP of 3.85. For the same compound, the pest or weed control at 500 ppm in series [4], in series [2] and in series [5] was 90 to 100% in each case.
Compound `N#Cc1cncn1CC1(c2ccc(F)cc2F)OC1c1ccccc1Cl` (stereo not shown) [I-09] came in with a chromatographic logP in series [1] of 3.06. The pest or weed control at 500 ppm in series [4], in series [2] and in series [5] was 90 to 100% in each case.
Take `Fc1ccc(C2(Cn3cncc3F)OC2c2cccnc2Cl)cc1` (stereo not shown) [I-15]: the chromatographic logP in series [1] was determined as 1.57. Also, in series [2], the pest or weed control at 500 ppm lay within 90 to 100%.
In the case of `N#Cc1cncn1CC1(c2ccc(F)cc2)OC1c1ccnc(Cl)c1` (stereo not shown) [I-20], in series [1], the chromatographic logP stood at 2.5. Moreover, the pest or weed control at 500 ppm in series [3], in series [4], in series [2] and in series [5] was 90 to 100% throughout.
Take `N#Cc1cncn1CC1(c2ccc(F)cc2)OC1c1cccc(Br)c1` (stereo not shown) [I-23]: in series [1], the chromatographic logP was 3.44. For the same compound, the pest or weed control at 500 ppm in series [3], in series [4], in series [2] and in series [5] was 90 to 100% each time.
